Reference: ChEMBL document CHEMBL1649542, “Outer membrane protein STM3031 (Ail/OmpX-like protein) plays a key role in the ceftriaxone resistance of Salmonella enterica serovar Typhimurium” (2009)
Converted amounts (≈) assume the structure as drawn.

Legend:
Assay type in all cases: functional, Salmonella enterica subsp. enterica serovar Typhimurium
[1] = test system: Salmonella typhimurium; test: Antibacterial activity against Salmonella enterica serovar Typhimurium R200 expressing stm3031 gene deletion mutant by CLSI M7-A7 agar dilution method
[2] = test system: Salmonella typhimurium; test: Antibacterial activity against Salmonella enterica serovar Typhimurium 01-4 by CLSI M7-A7 agar dilution method
[3] = test system: Salmonella typhimurium; test: Antibacterial activity against Salmonella enterica serovar Typhimurium R200 expressing Outer membrane protein STM3031 by CLSI M7-A7 agar dilution method
[4] = test system: Salmonella typhimurium; test: Antibacterial activity against Salmonella enterica serovar Typhimurium R10 expressing Outer membrane protein STM3031 after serial passage by Etest method
[5] = test system: Salmonella typhimurium; test: Antibacterial activity against Salmonella enterica serovar Typhimurium 01-4 by Etest method
[6] = test system: Salmonella typhimurium; test: Antibacterial activity against Salmonella enterica serovar Typhimurium R25 expressing Outer membrane protein STM3031 after serial passage by Etest method
[7] = test system: Salmonella typhimurium; test: Antibacterial activity against Salmonella enterica serovar Typhimurium R5 expressing Outer membrane protein STM3031 after serial passage by Etest method
[8] = test system: Salmonella typhimurium; test: Antibacterial activity against Salmonella enterica serovar Typhimurium R70 expressing Outer membrane protein STM3031 after serial passage by Etest method
[9] = test system: Salmonella typhimurium; test: Antibacterial activity against Salmonella enterica serovar Typhimurium R1 expressing Outer membrane protein STM3031 after serial passage by Etest method
[10] = Salmonella enterica subsp. enterica serovar Typhimurium

Compound | MIC [1] [µg/mL] | MIC [2] [µg/mL] | MIC [3] [µg/mL] | also measured
Cn1nnnc1SCC1=C(C(=O)O)N2C(=O)[C@@H](NC(=O)[C@H](O)c3ccccc3)[C@H]2SC1 [CEFAMANDOLE] | 64 (≈ 138 µM) | 2 (≈ 4.32 µM) | > 256 | –
CO/N=C(\C(=O)N[C@@H]1C(=O)N2C(C(=O)O)=C(CSc3nc(=O)c(O)nn3C)CS[C@H]12)c1csc(N)n1 [CEFTRIAXONE] | 4 (≈ 7.21 µM) | 0.047 (≈ 0.0847 µM) | > 256 | MIC [4]: 12 µg/mL (≈ 21.6 µM); MIC [5]: 0.047 µg/mL (≈ 0.0847 µM); MIC [6]: 24 µg/mL (≈ 43.3 µM); MIC [7]: 6 µg/mL (≈ 10.8 µM); MIC [8]: 64 µg/mL (≈ 115 µM); MIC [9]: 2 µg/mL (≈ 3.61 µM)
CC(=O)OCC1=C(C(=O)O)N2C(=O)[C@@H](NC(=O)Cc3cccs3)[C@H]2SC1 [CEPHALOTHIN] | 128 (≈ 323 µM) | 4 (≈ 10.1 µM) | > 256 | –
CC[C@H]1OC(=O)[C@H](C)[C@@H](O[C@H]2C[C@@](C)(OC)[C@@H](O)[C@H](C)O2)[C@H](C)[C@@H](O[C@@H]2O[C@H](C)C[C@H](N(C)C)[C@H]2O)[C@](C)(O)C[C@@H](C)C(=O)[C@H](C)[C@@H](O)[C@]1(C)O [ERYTHROMYCIN] | 2 (≈ 2.73 µM) | 128 (≈ 174 µM) | 4 (≈ 5.45 µM) | –
CCn1cc(C(=O)O)c(=O)c2ccc(C)nc21 [NALIDIXIC ACID] | 0.5 (≈ 2.15 µM) | 4 (≈ 17.2 µM) | 1 (≈ 4.31 µM) | –
CO[C@@H]1[C@@H](OC(N)=O)[C@@H](O)[C@H](Oc2ccc3c(O)c(NC(=O)c4ccc(O)c(CC=C(C)C)c4)c(=O)oc3c2C)OC1(C)C [NOVOBIOCIN] | 128 (≈ 209 µM) | 256 (≈ 418 µM) | 256 (≈ 418 µM) | –
CCN1CCN(C(=O)N[C@@H](C(=O)N[C@@H]2C(=O)N3[C@@H]2SC(C)(C)[C@@H]3C(=O)O)c2ccccc2)C(=O)C1=O [PIPERACILLIN] | – | 256 (≈ 495 µM) | > 256 | –
CO[C@H]1/C=C/O[C@@]2(C)Oc3c(C)c(O)c4c(O)c(c(/C=N/N5CCN(C)CC5)c(O)c4c3C2=O)NC(=O)/C(C)=C\C=C\[C@H](C)[C@H](O)[C@@H](C)[C@@H](O)[C@@H](C)[C@H](OC(C)=O)[C@@H]1C [RIFAMPIN] | 16 (≈ 19.4 µM) | 16 (≈ 19.4 µM) | 16 (≈ 19.4 µM) | –
CN[C@@H]1[C@H](O)[C@H](NC)[C@H]2O[C@@]3(O)C(=O)C[C@@H](C)O[C@H]3O[C@@H]2[C@H]1O [SPECTINOMYCIN] | – | > 256 | > 256 | –
CN[C@@H]1[C@H](O[C@H]2[C@H](O[C@H]3[C@H](O)[C@@H](O)[C@H](N=C(N)N)[C@@H](O)[C@@H]3N=C(N)N)O[C@@H](C)[C@]2(O)C=O)O[C@@H](CO)[C@H](O)[C@H]1O [STREPTOMYCIN] | 128 (≈ 220 µM) | 128 (≈ 220 µM) | 256 (≈ 440 µM) | –
CN(C)[C@@H]1C(O)=C(C(N)=O)C(=O)[C@@]2(O)C(O)=C3C(=O)c4c(O)cccc4[C@@](C)(O)[C@H]3C[C@@H]12 [TETRACYCLINE] | 4 (≈ 9 µM) | 8 (≈ 18 µM) | 16 (≈ 36 µM) | –
GENTAMICIN | – | – | – | MIC [1, 10]: 1 µg/mL; MIC [2, 10]: 1 µg/mL; MIC [3, 10]: 1 µg/mL
